Measured values as given in US20240277693A1, “A PHARMACEUTICAL PRODUCT CONTAINING TASQUINIMOD AND A METHOD FOR ASSESSING THE PURITY OF SAID PRODUCT” (ACTIVE BIOTECH AB, priority 2021, published 2024).

How the values were obtained:
[1] = Stability testing of capsules at 40° C./75% RH; type: physicochemical
Description: (§1) In some embodiments, the method disclosed herein comprises storing (keeping) a sample of the pharmaceutical product for a period of time, preferably under selected conditions of temperature and humidity. The amount (or concentration) of tasquinimod and of at least one of compounds I, II, III and IV in the sample may preferably be determined at the beginning or before the storage period and at the end of the storage period. The selected storage conditions may include a temperature in the range of, for example, 20° C. to 40° C., and a relative humidity in the surrounding atmosphere in the range of, for example, 30% to 75%; e.g. 25° C. and 60% RH, or 30° C. and 65% RH, or 35° C. and 70% RH, or 40° C. and 75% RH. The storage period may extend over a time period in the range of, for example, several weeks to several years. For example, the stability testing period (“storage period”) may be 2 weeks, 3 weeks, 1 month, 2 months, 3 months, 4 months, 5 months, 6 months, 9 months, 1 year, 18 months, 2 years, 3 years, 4 years or even 5 years or longer. A shorter storage period may be selected by use of higher storage temperature and/or higher relative humidity (RH). The total amount of a tasquinimod decomposition product in the sample at the end of the storage period may be determined by, for example, HPLC.
The batch of capsules manufactured in Example 2 was assessed by determining the amount of tasquinimod and the amount of compound III in a sample of the capsules, whereby the criterion for approving the batch was that a sample of capsules from the batch, at the end of a 1-month stability testing, contain not more than 1.0% w/w of compound III relative to the amount of tasquinimod. The stability testing consisted of keeping the capsules at 40° C./75% RH in open brown glass jars. At the end of the 1-month stability testing, the capsules contained 0.13% w/w of compound III, relative to the amount of tasquinimod (1.04 mg/capsule). Therefore, according to the selected criterion for approval, the batch of capsules was determined to be suitable for distribution.
The batch of capsules manufactured in Example 7 was assessed by determining the amount of tasquinimod and the amount of compound III in a sample of the capsules, whereby the criterion for approving the batch was that a sample of capsules from the batch, at the end of a 3-month stability testing, contain not more than 1.0% w/w of compound III relative to the amount of tasquinimod in the capsules. The stability testing consisted of keeping the capsules at 40° C./75% RH in sealed brown glass jars. At the end of the stability testing, the capsules contained 0.08% w/w of compound III, relative to the amount of tasquinimod (0.493 mg/capsule). Therefore, according to the selected criterion for approval, the batch of capsules was determined to be suitable for distribution.
The batch of capsules manufactured in Example 13 was assessed by determining the amount of tasquinimod and the amount of compound III in a sample of the capsules, whereby the criterion for approving the batch was that the capsules of the sample, at the end of a 3-month stability testing, contain not more than 1.0% w/w of compound III relative to the amount of tasquinimod in the capsules. The stability testing consisted of keeping the capsules, in a transparent, conventional blister pack, at 40° C./75% RH. At the end of the stability testing, the capsules contained 0.12% w/w of compound III, relative to the amount of tasquinimod (determined to be 0.253 mg/capsule). Therefore, according to the selected criterion for approval, the batch of capsules was determined to be suitable for distribution.

[2] = Assessment of capsules after manufacture: amount of tasquinimod and of decomposition products; type: physicochemical; details: for amount of compound III in capsules, relative to the amount of tasquinimod / amount of tasquinimod in capsules: after manufacture; for Decomposition products (% w/w), relative to the amount of tasquinimod in capsule / Tasquinimod (mg/capsule): 0 months (after manufacturing)
Description: as §1
The obtained batch of capsules was assessed by determining the amount of tasquinimod and the amount of compound III in a sample of the capsules. The selected criterion for approving the batch was that the capsules of the sample contain not more than 1.0% w/w of compound III relative to the amount of tasquinimod. […] Therefore, according to the selected criterion for approval, the batch of capsules was determined to be suitable for distribution.
The obtained batch of capsules was assessed by determining the amount of tasquinimod and the amount of compounds I, II, III and IV in a sample of the capsules. The selected criterion for approving the batch was that the capsules of the sample contain not more than in total 5% w/w of compounds I-IV relative to the amount of tasquinimod. […] Therefore, according to the selected criterion for approval, the batch of capsules was determined to be suitable for distribution.
The obtained batch of capsules was subjected to multiple assessments, viz. a first assessment comprising determining the amount of tasquinimod and the amount of compounds I, II, III and IV in a sample of the capsules directly after manufacturing, whereby the selected criterion for approving the batch for distribution was that the capsules of the sample, in a water impermeable blister pack, contain not more than in total 5% w/w of compounds I-IV relative to the amount of tasquinimod, followed by eight further, independent assessments, by determining the amount of tasquinimod and the amount of each one of compounds I, II, III and IV in a sample of the capsules at the end of a period of stability testing (by keeping the capsules, in a water impermeable blister pack, at 25° C./60% RH) of 3, 6, 9, 12, 18, 24, 36 and 48 months, respectively, whereby each time the criterion for approving the batch was that the capsules of the sample, at the end of each period of stability testing, contain a total amount of compounds I-IV of not more than 5.0% w/w, relative to the amount of tasquinimod in the capsules.

[3] = 0.25 mg capsules of Example 10, 3 months, sealed brown glass jars
[4] = 0.25 mg capsules of Example 10, 6 months, sealed brown glass jars
[5] = 0.25 mg capsules of Example 13, 3 months, transparent blister pack
[6] = 0.25 mg capsules of Example 13, 6 months, blister pack
[7] = 0.5 mg capsules of Example 7, 3 months, sealed brown glass jars
[8] = 0.5 mg capsules of Example 7, 6 months, sealed brown glass jars
[9] = 1 mg capsules of Example 2, 1 month, open brown glass jars
[10] = 1 mg capsules of Example 2, 2 months, open brown glass jars
[11] = 1 mg capsules of Example 2, 3 months, open brown glass jars
[12] = 1 mg capsules of Example 2, 6 months, open brown glass jars
[13] = 1 mg capsules of Example 16, 3 months, transparent blister pack
[14] = 1 mg capsules of Example 16, 6 months, blister pack

COc1cccc2c1c(O)cc(=O)n2C [Compound III, 4-hydroxy-5-methoxy-1-methylquinolin-2(1H)-one]
amount of compound III in capsules, relative to the amount of tasquinimod [1, 3]: 0.10 % w/w
amount of compound III in capsules, relative to the amount of tasquinimod [1, 4]: 0.10 % w/w
amount of compound III in capsules, relative to the amount of tasquinimod [1, 5]: 0.12 % w/w
amount of compound III in capsules, relative to the amount of tasquinimod [1, 6]: 0.24 % w/w
amount of compound III in capsules, relative to the amount of tasquinimod [1, 7]: 0.08 % w/w
amount of compound III in capsules, relative to the amount of tasquinimod [1, 8]: 0.14 % w/w
amount of compound III in capsules, relative to the amount of tasquinimod [1, 9]: 0.13 % w/w
amount of compound III in capsules, relative to the amount of tasquinimod [1, 10]: 0.12 % w/w
amount of compound III in capsules, relative to the amount of tasquinimod [1, 11]: 0.14 % w/w
amount of compound III in capsules, relative to the amount of tasquinimod [1, 12]: 0.16 % w/w
amount of compound III in capsules, relative to the amount of tasquinimod [1, 13]: 0.13 % w/w
amount of compound III in capsules, relative to the amount of tasquinimod [1, 14]: 0.21 % w/w
amount of compound III in capsules, relative to the amount of tasquinimod ([2]; 0.25 mg capsules of Example 10): 0.07 % w/w
amount of compound III in capsules, relative to the amount of tasquinimod ([2]; 0.25 mg capsules of Example 13): 0.06 % w/w
amount of compound III in capsules, relative to the amount of tasquinimod ([2]; 0.5 mg capsules of Example 7): 0.03 % w/w
Decomposition products (% w/w), relative to the amount of tasquinimod in capsule ([2]; 0.5 mg capsules of Example 28): <0.05 % w/w
amount of compound III in capsules, relative to the amount of tasquinimod ([2]; 1 mg capsules of Example 2): 0.01 % w/w
amount of compound III in capsules, relative to the amount of tasquinimod ([2]; 1 mg capsules of Example 16): 0.02 % w/w
Decomposition products (% w/w), relative to the amount of tasquinimod in capsule ([2]; 1.0 mg capsules of Example 29): <0.05 % w/w

COc1cccc2c1c(O)c(C(=O)N(C)c1ccc(C(F)(F)F)cc1)c(=O)n2C [Tasquinimod, 4-hydroxy-5-methoxy-N, 1-dimethyl-2-oxo-N-[4-(trifluoromethyl)phenyl]-1,2-dihydroquinoline-3-carboxamide]
amount of tasquinimod in capsules [1, 3]: 0.253 mg/capsule
amount of tasquinimod in capsules [1, 4]: 0.247 mg/capsule
amount of tasquinimod in capsules [1, 5]: 0.253 mg/capsule
amount of tasquinimod in capsules [1, 6]: 0.247 mg/capsule
amount of tasquinimod in capsules [1, 7]: 0.493 mg/capsule
amount of tasquinimod in capsules [1, 8]: 0.487 mg/capsule
amount of tasquinimod in capsules [1, 9]: 1.04 mg/capsule
amount of tasquinimod in capsules [1, 10]: 1.04 mg/capsule
amount of tasquinimod in capsules [1, 11]: 1.00 mg/capsule
amount of tasquinimod in capsules [1, 12]: 1.01 mg/capsule
amount of tasquinimod in capsules [1, 13]: 0.993 mg/capsule
amount of tasquinimod in capsules [1, 14]: 0.985 mg/capsule
amount of tasquinimod in capsules ([2]; 0.25 mg capsules of Example 10): 0.252 mg/capsule
amount of tasquinimod in capsules ([2]; 0.25 mg capsules of Example 13): 0.256 mg/capsule
amount of tasquinimod in capsules ([2]; 0.25 mg capsules of Example 19): 0.244 mg/capsule
amount of tasquinimod in capsules ([2]; 0.5 mg capsules of Example 7): 0.498 mg/capsule
Tasquinimod (mg/capsule) ([2]; 0.5 mg capsules of Example 28): 0.500 mg/capsule
amount of tasquinimod in capsules ([2]; 1 mg capsules of Example 2): 1.05 mg/capsule
amount of tasquinimod in capsules ([2]; 1 mg capsules of Example 16): 0.994 mg/capsule
Tasquinimod (mg/capsule) ([2]; 1.0 mg capsules of Example 29): 0.992 mg/capsule
